The source of these data is PMC10017428, “Structure of VanS from vancomycin-resistant enterococci: A sensor kinase with weak ATP binding” (The Journal of Biological Chemistry, 2023).

One experiment deals with EnvZ CA domain (Escherichia coli, UniProt P0AEJ4). The experiment in a line: biochemical.
The target in experiment [1] is T1, VanSA CA domain (Enterococcus faecium, UniProt Q06240).
T1 construct: gene vanS
Description: biochemical.

Experiment [2] deals with T2, VanSC CA domain (Enterococcus gallinarum, UniProt Q9KJT3). The experiment in a line: biochemical.
T2 sequence (Q9KJT3 208-361): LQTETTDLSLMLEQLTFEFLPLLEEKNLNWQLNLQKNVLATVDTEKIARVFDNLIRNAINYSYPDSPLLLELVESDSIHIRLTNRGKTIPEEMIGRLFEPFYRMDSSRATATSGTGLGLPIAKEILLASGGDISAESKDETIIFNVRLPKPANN
In experiment [3] the target is T2, VanSC CA domain. The experiment in a line: TNP-ATP displacement, fluorescence. The class given is binding. Particulars: 50 mM Tris-Cl pH 7.5, 50 mM KCl, 5 mM MgCl2, 10 μM TNP-ATP; competitive.
The target in experiment [4] is T1, VanSA CA domain. The experiment in a line: TNP-ATP displacement, fluorescence. It is filed as binding. Particulars: 50 mM Tris-Cl pH 7.5, 50 mM KCl, 5 mM MgCl2, 10 μM TNP-ATP; competitive.

T1 sequence (Q06240 221-384): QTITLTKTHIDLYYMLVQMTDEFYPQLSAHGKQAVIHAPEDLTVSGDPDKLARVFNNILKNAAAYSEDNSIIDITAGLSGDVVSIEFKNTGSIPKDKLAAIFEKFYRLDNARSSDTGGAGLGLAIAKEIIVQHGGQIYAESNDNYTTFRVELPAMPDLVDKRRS
Sequence of EnvZ CA domain (P0AEJ4 289-450): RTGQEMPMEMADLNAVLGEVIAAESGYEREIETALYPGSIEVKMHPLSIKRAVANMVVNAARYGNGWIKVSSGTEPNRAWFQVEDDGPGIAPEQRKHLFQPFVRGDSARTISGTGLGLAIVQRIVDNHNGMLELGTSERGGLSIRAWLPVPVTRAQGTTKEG

The Kd is a measure of binding affinity in units of concentration. As for `Nc1ncnc2c1ncn2[C@@H]1O[C@H](COP(=O)(O)OP(=O)(O)OP(=O)(O)O)[C@@H](O)[C@H]1O` [ATP], the Kd at EnvZ CA domain was found to be 0.0833 ± 0.0002 mM; on VanSA CA domain [1], 3.948 ± 0.001 mM; at VanSC CA domain [2], 3.128 ± 0.0004 mM.
Consider `Nc1nc2c(ncn2[C@@H]2O[C@H](COP(=O)(O)OP(=O)(O)OP(=O)(O)O)[C@@H](O)[C@H]2O)c(=O)[nH]1` [GTP], for which the “TNP-ATP displacement, fluorescence” value is “GTP bound less tightly than ATP to both VanSA and VanSC” at VanSC CA domain [3]; “GTP bound less tightly than ATP to both VanSA and VanSC” at VanSA CA domain [4].
